In assay [1] the test system is HEK293 cells. The experiment in a line: Preliminary screening as mRNA vectors, EGFP mRNA transfection of HEK293 cells. The conditions noted are these: HEK293 cells, 96-well plates, EGFP mRNA 50 ng per well; percentage of GFP fluorescent cells relative to total number of cells (Hoechst). Type of assay: cell-based. Put shortly: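 Each well of HEK293 cells received 50 ng of EGFP mRNA. Efficiency was expressed as percent GFP-expressing cells over Hoechst-defined total cell number.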

Assay [2] relates to HEK293 cells. In words: Preliminary screening as DNA vectors, GFP transfection of HEK293 cells. It counts as cell-based. The conditions noted are these: HEK293 cells; lipid/DOPE liposome with 75 ng plasmid DNA (psin-EGFP-IRES-Puro); number of cells expressing GFP divided by total number of nuclei (Hoechst). In a few lines:
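Lipid + DOPE liposomes (NaOAc, pH 5.6) complexed w/ 75 ng psin-EGFP-IRES-Puro, 30 min RT; added to 3-5×10^4 HEK293/well, 37° C. Hoechst 0.2 μg/mL at 20-24 h, imaged after further 20-24 h. Efficiency = GFP+ cells / total nuclei.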

The values that follow come from US20230123334A1, “AMINO LIPID COMPOUND, PREPARATION METHOD THEREFOR, AND APPLICATION THEREOF” (SHENZHEN SHENXIN BIOTECHNOLOGY CO., LTD., priority 2020, published 2023).

For the compound `CCCCCCCCCCCNc1nc(NCCCCCC)nc(NCCN2CCOCC2)n1` [Compound N6N11D2], the “Absolute mRNA transfection efficiency in HEK293 cells” value (“Absolute mRNA transfection efficiency” below) in assay [1] is reported as 0.0%. Besides, the “Absolute DNA transfection efficiency in HEK293 cells” value (“Absolute DNA transfection efficiency” for short) in assay [2] was found to be 0.0%.

With `CCCCCCCCCCCNc1nc(NCCCCCC)nc(NCCN2CCCC2)n1` [Compound N6N11D3], the “Absolute mRNA transfection efficiency” value in assay [1] came to 0.9%. Moreover, in assay [2], the “Absolute DNA transfection efficiency” value came to 0.3%.

Take `CCCCCCCCCCCNc1nc(NCCCCCC)nc(NCCN2CCCCC2)n1` [Compound N6N11D4]: the “Absolute mRNA transfection efficiency” value in assay [1] stood at 0.0%. For the same compound, the “Absolute DNA transfection efficiency” value in assay [2] was 0.0%.

Turning to `CCCCCCCCCCCNc1nc(NCCCCCC)nc(NCCN2CCN(C)CC2)n1` [Compound N6N11D5], in assay [1], the “Absolute mRNA transfection efficiency” value turned out to be 0.5%. In addition, the “Absolute DNA transfection efficiency” value in assay [2] amounted to 0.1%.

`CCCCCCCCCCCNc1nc(NCCCCCC)nc(NCCCN(C)C)n1` [Compound N6N11D6]: the “Absolute mRNA transfection efficiency” value in assay [1] was 0.0%. Also, the “Absolute DNA transfection efficiency” value in assay [2] came out at 0.2%.

Turning to `CCCCCCCCCCCNc1nc(NCCCCCC)nc(NCCN(CC)CC)n1` [Compound N6N11D7], the “Absolute mRNA transfection efficiency” value in assay [1] is reported as 0.0%. Further, in assay [2], the “Absolute DNA transfection efficiency” value was 0.0%.

For the compound `CCCCCCCCCCCNc1nc(NCCCCCC)nc(NCCCN2CCOCC2)n1` [Compound N6N11D8], the “Absolute mRNA transfection efficiency” value in assay [1] amounted to 0.1%. Besides, the “Absolute DNA transfection efficiency” value in assay [2] was 0.0%.

For `CCCCCCCCCCCNc1nc(NN)nc(NCCCN2CCN(C)CC2)n1` [Compound N6N11D9], the “Absolute mRNA transfection efficiency” value in assay [1] is reported as 0.0%. Moreover, the “Absolute DNA transfection efficiency” value in assay [2] was found to be 0.0%.

Turning to `CCCCCCCCCCCNc1nc(NCCCCCC)nc(NCC2CCN(C)CC2)n1` [Compound N6N11D10], the “Absolute mRNA transfection efficiency” value in assay [1] was 0.0%. Moreover, the “Absolute DNA transfection efficiency” value in assay [2] was found to be 0.0%.

On to `CCCCCCCCCCCCNc1nc(NCCCCCC)nc(NCCN(C)C)n1` [Compound N6N12D1], for which, in assay [1], the “Absolute mRNA transfection efficiency” value stood at 0.2%. The “Absolute DNA transfection efficiency” value in assay [2] is 0.0%.

For the compound `CCCCCCCCCCCCNc1nc(NCCCCCC)nc(NCCN2CCOCC2)n1` [Compound N6N12D2], in assay [1], the “Absolute mRNA transfection efficiency” value came to 0.0%. The “Absolute DNA transfection efficiency” value in assay [2] is on record as 0.0%.

As to `CCCCCCCCCCCCNc1nc(NCCCCCC)nc(NCCN2CCCC2)n1` [Compound N6N12D3], the “Absolute mRNA transfection efficiency” value in assay [1] turned out to be 0.5%. Further, the “Absolute DNA transfection efficiency” value in assay [2] turned out to be 0.2%.

Consider `CCCCCCCCCCCCNc1nc(NCCCCCC)nc(NCCN2CCCCC2)n1` [Compound N6N12D4], for which, in assay [1], the “Absolute mRNA transfection efficiency” value stood at 0.0%. The “Absolute DNA transfection efficiency” value in assay [2] stood at 0.0%.

For `CCCCCCCCCCCCNc1nc(NCCCCCC)nc(NCCN2CCN(C)CC2)n1` [Compound N6N12D5], the “Absolute mRNA transfection efficiency” value in assay [1] was 0.0%. In addition, the “Absolute DNA transfection efficiency” value in assay [2] came to 0.1%.

For `CCCCCCCCCCCCNc1nc(NCCCCCC)nc(NCCCN(C)C)n1` [Compound N6N12D6], the “Absolute mRNA transfection efficiency” value in assay [1] came out at 0.1%. Moreover, the “Absolute DNA transfection efficiency” value in assay [2] is on record as 0.3%.

Regarding `CCCCCCCCCCCCNc1nc(NCCCCCC)nc(NCCN(CC)CC)n1` [Compound N6N12D7], the “Absolute mRNA transfection efficiency” value in assay [1] is reported as 0.0%. Moreover, the “Absolute DNA transfection efficiency” value in assay [2] is listed as 0.0%.

Take `CCCCCCCCCCCCNc1nc(NCCCCCC)nc(NCCCN2CCOCC2)n1` [Compound N6N12D8]: the “Absolute mRNA transfection efficiency” value in assay [1] was found to be 0.1%. Further, in assay [2], the “Absolute DNA transfection efficiency” value is given as 0.0%.

As for `CCCCCCCCCCCCNc1nc(NCCCCCC)nc(NCCCN2CCN(C)CC2)n1` [Compound N6N12D9], in assay [1], the “Absolute mRNA transfection efficiency” value is 0.0%. For the same compound, in assay [2], the “Absolute DNA transfection efficiency” value is 0.0%.

As to `CCCCCCCCCCCCNc1nc(NCCCCCC)nc(NCC2CCN(C)CC2)n1` [Compound N6N12D10], the “Absolute mRNA transfection efficiency” value in assay [1] was determined as 0.0%. Moreover, in assay [2], the “Absolute DNA transfection efficiency” value came out at 0.2%.
